Experiment [1] relates to hESC-ventricular CMs. The experiment in a line: Action potential recording (amphotericin-B-perforated patch-clamp) in hESC-ventricular CMs. It is filed as cell-based, human. Particulars: 1 Hz; for APAmax / APAplat / APD20 / dV/dtmax / APD50 / APD90: hESC-VM, n=5, mean±SEM. The procedure:
(§1) Spin EBs resulting from control and RA-treated differentiations were dissociated at day 17 to single cells using TrypLE™ Select (Life Technologies) and plated on gelatin-coated coverslips. Electrophysiological measurements were performed 10–14 days after dissociation from intrinsically quiescent single GFP^+ CMs that were able to contract upon field stimulation.
(§2) APs and membrane currents from hESC-CMs were recorded with the amphotericin-B-perforated patch-clamp technique at 36 ± 0.2°C using an Axopatch 200B amplifier (Molecular Devices, Sunnyvale, CA, USA). Cells were superfused with Tyrode's solution containing (in mmol/l) NaCl 140, KCl 5.4, CaCl2 1.8, MgCl2 1.0, glucose 5.5, and HEPES 5.0; pH was adjusted to 7.4 with NaOH. Pipettes (borosilicate glass; resistance 2–3 MΩ) were heat polished and filled with solution containing (in mmol/l) K-gluconate 125, KCl 20, NaCl 5, amphotericin-B 0.22 and HEPES 10; pH was adjusted to 7.2 with KOH. AP measurements were low-pass-filtered (cutoff frequency 10 kHz) and digitized at 40 kHz; membrane currents were measured at 1 and 4 kHz, respectively. Capacitance and series resistance were compensated by ≥ 80%, and APs were corrected for the calculated liquid junction potential (Barry & Lynch, [1991]). Voltage control, data acquisition and analysis were accomplished using custom software. Cell membrane capacitance (Cm) was estimated by dividing the time constant of the decay of the capacitive transient in response to 5 mV hyperpolarizing voltage clamp steps from −40 mV by the series resistance.
(§3) APs were elicited at 0.5 to 4 Hz by 3 ms, ∼1.2× threshold current pulses through the patch pipette. APs were characterized, as depicted in Fig2A, by resting membrane potential (RMP), maximum upstroke velocity (dV/dtmax), maximum AP amplitude (APAmax), AP plateau amplitude (APAplat, defined as the potential difference between RMP and potential at 20 ms after the upstroke), and the duration at 20, 50 and 90% repolarization (APD20, APD50, and APD90, respectively). Parameter values obtained from 10 consecutive APs were averaged. […]
(§4) (1:2000, Sigma) was performed in TBS-0.05% Tween 20 containing 2% nonfat milk for 1 hour at room temperature. The corresponding secondary antibody conjugated to horseradish peroxidase (HRP) (1:2000; anti-mouse-HRP (#7076), Cell Signaling) was incubated for 1 h at room temperature in 2% nonfat milk. Blots were developed on X-ray films by using a chemiluminescent detection system (ECL; GE Life Science, […]
(§5) The effects of drugs were tested in paired measurements 5 minutes after the onset of bath application. 4-AP was prepared as a 50 mmol/L stock solution in Tyrode’s solution, and pH adjusted to 7.4, with the addition of HCl. CCh, a muscarinic receptor agonist, was prepared as a 10 mmol/L stock solution in Tyrode’s solution. Nifedipine was prepared as a 10 mmol/L stock solution in DMSO and stored at 4 °C. Stock solutions for the other compounds were prepared in DMSO: Vernakalant (30 mmol/L), XEN- D0101 (3 mmol/L), XEN-R0703 (2 mmol/L) and […]. All stock solutions were diluted appropriately before use.
(§6) Recombinant ion channel pharmacology
(§7) Studies were conducted at room temperature using the whole-cell patch-clamp technique. HEK293 cells expressing Kir3.1/3.4, Kir2.1, and CHO cells expressing Nav1.2, Cav1.2 or hERG were used.

Experiment [2] concerns hESC-atrial CMs. The experiment is described as follows: Action potential recording (amphotericin-B-perforated patch-clamp) in hESC-atrial CMs. Conditions: for reversibility of AP changes: washout. Type of experiment: cell-based, human. The method, then:
as §1, §2, §3, §4, §5, §6, §7
For orientation: In patch-clamp work, channel activity is measured electrically.

[3] abbreviates: hESC-AM, 4-AP 50 μmol/l, 1 Hz, n=5, mean±SEM, Table S5.
The mark [4] stands for this setting: hESC-AM, CCh 10 μmol/l, 1 Hz, n=4, mean±SEM, Table S9.
Setting [5] is: hESC-AM, CCh 10 μmol/l, 1 Hz, n=5, mean±SEM, Table S5.
[6] abbreviates: XEN-D0101 3 μmol/l, 1 Hz, vs pre-drug.
The mark [7] stands for this setting: hESC-AM, XEN-D0101 3 μmol/l, 1 Hz, n=5, mean±SEM, Table S7.
Setting [8] is: vernakalant 30 μmol/l, Table S6.
[9] abbreviates: hESC-AM, vernakalant 30 μmol/l, 1 Hz, n=5, mean±SEM, Table S6.
The mark [10] stands for this setting: vernakalant 30 μmol/l, 1 Hz, vs pre-drug.

The record followed here is publication PMC4403042, “Atrial-like cardiomyocytes from human pluripotent stem cells are a robust preclinical model for assessing atrial-selective pharmacology” (EMBO Molecular Medicine, 2015).

SMILES strings stand for the structures.

Take `Nc1ccncc1` [4-AP, 4-aminopyridine]: in experiment [1] (4-AP 50 μmol/l, Table S5), the APAmax was 99.0±4.0 mV, the APAplat is reported as 99.8±5.8 mV, the APD20 stood at 83.1 ± 15.1 ms and the dV/dtmax was determined as 49.9±11.1 V/s. In experiment [2] (setting [3]), the APAmax stood at 94.6±3.0 mV, the APAplat was 86.4±6.5 mV, the APD20 worked out at 41.6 ± 8.1 ms and the APD50 was 72 ± 13 ms.
In experiment [1] (CCh 10 μmol/l), `C[N+](C)(C)CCOC(N)=O` [CCh, carbachol] gave a dV/dtmax of 129.9±54 V/s. In experiment [1] (CCh 10 μmol/l, Table S5), the APAmax was determined as 104.4±9.1 mV and the APD20 was 112.9 ± 18.0 ms. Also, in experiment [1] (CCh 10 μmol/l, Table S9), the APAmax is 110.5±7.8 mV, the APAplat was determined as 109.6±7.5 mV, the APD20 came to 122.9 ± 17.5 ms and the APD50 was found to be 181.2 ± 27.6 ms. Also, in experiment [1] (CCh 10 μmol/l, Table S9), the APD90 was found to be 230.6 ± 25.7 ms and the dV/dtmax is recorded as 154.8±58.3 V/s. Further, in experiment [2] (setting [4]), the APAmax worked out at 88.9±1.4 mV, the APAplat worked out at 72.4±3.1 mV, the APD20 stood at 23.9 ± 4.6 ms and the APD50 is 68.1 ± 7.7 ms. Besides, in experiment [2] (setting [4]), the APD90 stood at 141.2 ± 12.4 ms and the dV/dtmax came out at 40.0±5.2 V/s. In experiment [2] (setting [5]), this compound showed an APAmax of 89.1±1.1 mV, an APAplat of 72.6±2.3 mV, an APD20 of 25.4 ± 3.8 ms and an APD50 of 67 ± 6 ms.
For `O=C(NCCO)C1CCCN(c2nc(NCc3ccccn3)c3c(-c4ccccc4)csc3n2)C1` (stereo not shown) [XEN-D0101], the “effect on AP parameters” value in experiment [1] (XEN-D0101 3 μmol/l) is “did not s ignificantly alter any AP parameter”. Also, in experiment [1] (XEN-D0101 3 μmol/l, Table S7), the APAmax came to 105.3±5.8 mV, the APAplat turned out to be 103.7±6.5 mV, the APD20 turned out to be 101.3 ± 14.0 ms and the APD50 turned out to be 158.4 ± 18.0 ms. In experiment [1] (XEN-D0101 3 μmol/l, Table S7), the APD90 is 237.4 ± 21.9 ms. Moreover, in experiment [2] (setting [6]), the “change of APA” value is above 10 mV, the “change of dV/dtmax” value is on record as above 8 V/s, the “elevation of APAplat” value was above 26 mV and the “prolongation of APD20” value is recorded as above 30 ms. Besides, in experiment [2] (setting [6]), the “prolongation of APD50” value is reported as above 35 ms and the “prolongation of APD90” value is above 23 ms. Also, the “reversibility of AP changes” value in experiment [2] (XEN-D0101 3 μmol/l) is given as “reversible upon washout”. In experiment [2] (setting [7]), this compound registered an APAmax of 98.9±5.8 mV, an APAplat of 86.8±7.4 mV, an APD20 of 55.7 ± 16.2 ms and an APD50 of 91.3 ± 22.6 ms. The same compound gave an APD90 in experiment [2] (setting [7]) of 156.2 ± 22.8 ms.
In experiment [1] (setting [8]), `COc1ccc(CCO[C@@H]2CCCC[C@H]2N2CC[C@@H](O)C2)cc1OC` [vernakalant] gave an APAmax of 104±2.2 mV, an APAplat of 101.3±2.8 mV, an APD20 of 68.6 ± 06.8 ms and an APD90 of 180.0 ± 17.7 ms. Also, the dV/dtmax in experiment [1] (setting [8]) is recorded as 58.3±6.1 V/s. The “effect on AP parameters” value in experiment [1] (vernakalant 30 μmol/l) is “reduced dV/dtmax but without affecting other AP parameters”. Further, in experiment [2] (setting [9]), the APAmax was found to be 80.3±2.2 mV, the APAplat came out at 73.6±4.9 mV, the APD20 is 29.7 ± 4.0 ms and the APD50 was found to be 65.4 ± 7.7 ms. In experiment [2] (setting [9]), the APD90 was determined as 177.2 ± 08.2 ms, the RMP is -74.2±2.5 mV and the dV/dtmax came out at 40.4±3.8 V/s. In addition, in experiment [2] (setting [10]), the “increase of APAmax” value was above 2.5 mV, the “increase of APAplat” value is above 20%, the “prolongation of APD20” value is listed as above 7.5 ms and the “prolongation of APD50” value was above 15 ms. The “prolongation of APD90” value in experiment [2] (setting [10]) was above 22 ms. Besides, in experiment [2] (vernakalant 30 μmol/l), the “reversibility of AP changes” value is recorded as “nearly reversible upon washout”.
